Measurements taken from patent US20080171710A1, “The Redox/Fyn/c-Cbl Pathway” (priority 2007, published 2008).
Where two headings read alike, the source gives them in different places.

How the values were obtained:
PDGFRα [1] = assay type: cell-based, rat; conditions: for levels of PDGFRα: tamoxifen (100 nM; time course 4, 12, 24 hours); for effect on MeHg-induced reductions in levels of PDGFRα: together with MeHg
O-2A/OPCs [2] = assay: In vitro BrdU incorporation assay; assay type: cell-based, rat; conditions: TMX 10 nM, 100 nM and 1 μM, 2 days
Description: Cell proliferation was assessed by bromodeoxyuridine (BrdU) incorporation and by using the mouse anti-BrdU mAb IgGl (1:100; Sigma) to label dividing cells. Stained cells on cover slips were rinsed two times in 1×PBS, counterstained with 4′6-diamidino-2-phenylindole (DAPI; Molecular Probes, Eugene, Oreg., United States) and mounted on glass slides with Fluoromount (Molecular Probes). Staining against surface proteins was performed on cultures of living cells or on cells fixed with 2% paraformaldehyde. Staining with intracellular antibodies was performed by permeabilizing cells with ice-cold methanol for 4 min or by using 0.5% Triton for 15 mm on 2% parafomaldhyde-fixed cells. Antibody binding was detected with appropriate fluorescent dye-conjugated secondary antibodies at 10 μg/ml (Southern Biotech, Birmingham, Ala., United States) or Alexa Fluor-coupled antibodies at a concentration of 1 μg/ml (Molecular Probes), applied for 20 min. Anti-BrdU monoclonal antibody was obtained from Sigma.

MDA-MB-231 cell = MDA-MB-231 cell division by BrdU incorporation; assay type: cell-based; conditions: 20 μM tamoxifen, 48 hours
Description: It has been reported that c-Cbl induced down-regulation of EGFR is disabled in cancer cells (Hirsch DS, Shen. Y, Wu WJ, (2006) Cancer Res. Apr 1;66(7):3523-30). Thus, growth and motility inhibition of breast cancer cells by EGFR degradation is correlated with inaetivation of Cdc42. […] Cells were cultured in phenol red-free growth media and exposed to TMX (0, 1 μM, 10 μM, 20 μM and 50 μM) for 48 hours, with or without 1 mM NAC. In FIG. 22C. MDA-MB-231 cell division was analyzed by BrdU incorporation analysis. […] Percentage of Brdu+ cells from DAPI+ cells was determined in each sample.

EGFR = assay type: cell-based, rat
Excerpt: (§1) Anti-phosphorylated Erk monoclonal, anti-Erk monoclonal, anti-TrkC polyclonal anti-Fyn polyclonal, anti-EGFR polyclonal, anti-c-Met polyclonal, anti-phospho-tyrosine monoclonal, and anti-PDGFRα polyclonal antibodies were obtained from Santa Cruz Biotechnology (Santa Cruz, Calif., United States). Anti-c-Cbl monoclonal antibody was obtained from BD PharMingen (San Diego, Calif., United States). Anti-phosphorylated Akt monoclonal and anti-Akt polyclonal antibodies were obtained from Cell Signaling Technology (Beverly, Mass., United States). Anti-phosphorylated PDGPRα polyclonal antibody was obtained from Biosource (Carlsbad, Calif., United States). The cell culture samples were collected and lysed in RAPI buffer, whereas dissected tissue samples were sonicated in RAPI buffer. Samples were resolved on SDS-PAGE gels and transferred to PVDF membranes (PerkinElmer Life Science. Wellesley, Mass., United States), After being blocked in 5% skim milk in PBS containing 0.1% Tween 20, membranes were incubated with a primary antibody, followed by incubation with an HRP-conjugated secondary antibody (Santa Cruz Biotechnology). Membranes were visualized using Western Blotting Luminol Reagent (Santa Cruz Biotechnology). All analyses of signaling pathway components were conducted in the presence of ligand for the receptor pathway under analysis (either PDGF-AA for PDGFRα, NT-3 or TrkC, HGF for c-Met, or EGF for EGFR).

c-Met = assay type: cell-based, rat
Excerpt: as §1

TrkC = assay type: cell-based, rat
Excerpt: as §1

PDGFRα [3] = assay: PDGFRα phosphorylation (Western blot, anti-PDGFRα(pY742)); assay type: cell-based, rat
Excerpt: The cells were then collected and lysed for Western blotting. […] Cells were lysed for Western blot analysis using anti-PDGFRα(pY742) antibody. The membranes were de-probed and then re-probed with antibody against total PDGFRα and anti-β-tubulin antibody. […]
as §1

c-Cbl [4] = assay type: cell-based, rat
Description: (§2) For the co-immunoprecipitation assay, anti-c-Cbl monoclonal antibody (BD PharMingen) or anti-PDGFRα polyclonal antibody (Santa Cruz Biotechnology) was added to the pre-cleared cell lysates (250 μg of total protein), and the mixtures were gently rocked for 2 h at 4° C. A total of 30 μl of protein A/G agarose was then added to the mixture followed by rotating at 4° C. overnight. The protein A/G agarose was then spun down and washed thoroughly three times. The precipitates were resolved on an 8% SDS-PAGE gel and then were subjected to Western blot analysis using an anti-p-Tyr (for c-Cbl phosphorylation assay) or ubiquitin (for PDGFR ubiquitylation assay) antibody (Santa Cruz Biotechnology).

Erk1/2 = assay type: cell-based, rat
Description: Cells were deprived of PDGF-AA for 5 h before re-exposure to PDGF-AA (10 ng/ml) for 1 h for Western blot or 6 h for luciferase assays of pathway activation. Transient transfection was performed using Fugene6 (Roche, Basel, Switzerland ) transfection solution according to the manufacturer's protocol. For the luciferase assay, cells seeded in 12-well plates were transfected with a reporter plasmid SRE-Luc(firefly) or NF-κB-Luc(firefly) (BD-Clontech, Palo Alto, Calif., United States) and an internal control plasmid pRLSV40-LUC. Analyses of luciferase activity were performed according to the protocol of the Dual Luciferase Assay System (Promega, Madison, Wis., United States), which uses an internal control of Renilla luciferase for quantification, and relative light units were measured using a luminometer.
as §1

PDGFRα [5] = assay: PDGFR ubiquitylation (immunoprecipitation assay); assay type: cell-based, rat; conditions: co-exposure with MeHg
Description: as §2

Fyn [6] = target: T1, Fyn (Rattus norvegicus, UniProt Q62844); assay type: cell-based
T1 construct: 250 μg of total cell lysates were immunoprecipitated with anti-Fyn antibody; endogenous in cells; host or cells: primary rat O-2A/OPCs
T1 sequence (Q62844 whole entry): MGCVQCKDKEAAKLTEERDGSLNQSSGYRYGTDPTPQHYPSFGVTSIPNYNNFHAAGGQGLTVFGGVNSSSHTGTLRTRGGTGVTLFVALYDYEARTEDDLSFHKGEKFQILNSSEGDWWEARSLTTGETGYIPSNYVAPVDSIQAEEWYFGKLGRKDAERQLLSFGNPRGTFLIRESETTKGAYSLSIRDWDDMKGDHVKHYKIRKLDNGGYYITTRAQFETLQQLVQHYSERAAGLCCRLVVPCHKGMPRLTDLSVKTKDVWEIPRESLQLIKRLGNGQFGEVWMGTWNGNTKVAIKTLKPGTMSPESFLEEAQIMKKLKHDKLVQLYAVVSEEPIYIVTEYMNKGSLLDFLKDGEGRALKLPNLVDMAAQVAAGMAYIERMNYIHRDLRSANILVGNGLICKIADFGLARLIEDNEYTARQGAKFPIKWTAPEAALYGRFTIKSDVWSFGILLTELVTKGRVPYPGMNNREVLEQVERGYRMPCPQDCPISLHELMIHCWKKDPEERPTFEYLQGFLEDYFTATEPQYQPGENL
Description: Fyn kinase activity was quantified using the Universal Tyrosine Kinase Assay Kit (Takara, Madison, Wis., United States). O-2A/OPCs exposed to different treatments were solubilized with an equal volume of the extraction buffer provided with the kit for 15 min, and the resulting lysates were centrifuged at 13,000×g for 15 min at 4° C.; 250 μg of total cell lysates were immunoprecipitated with anti-Fyn antibody (Santa Cruz Biotechnology). Following immunoprecipitation, Fyn immune complexes were washed four times with extraction buffer, and then Fyn kinase activities of each sample were assayed using the kit according to the manufacturer's instructions.

O-2A/OPCs [7] = assay: Cell death of O-2A/OPCs on exposure; assay type: cell-based, rat; conditions: MeHg at lower concentrations (not above 50 nM); 1 μM Pb; 5 μM paraquat
Description: To generate sufficient numbers of cells for biochemical analysis, cells, were expanded through one to two passages in PDGF+FGF-2 before replating in the presence of PDGF alone. When cells achieved approximately 50% confluence, MeHg, Pb, or paraquat was added to their medium at concentrations indicated. Doses for the toxicants were chosen on the basis of dose-response curves to identify sub-lethal exposure levels, as a reflection of blood and brain toxicant levels of these compounds and, where applicable, on the basis of previous reports. All toxicant concentrations examined were confirmed to cause death of less than 5% of cells over the time course of the experiment.

O-2A/OPCs [8] = assay: Intracellular ROS / redox state measurement; assay type: cell-based, rat; conditions: 1 μM Pb or 5 μM paraquat; dyes dihydro-chloromethyl-rosamine or dihydro-calcein-AM
Description: Cells were plated in 96-well microplates and grown to about 60% continence. […] Cells were then washed once with HBSS and growth medium to remove free probe. Then, fresh growth medium was added and a baseline fluorescence reading was taken prior to treatment. For NAC pre-treatment. […] Fluorescence was measured in a Wallac 1420 Victor2 multilabel counter (PerkinElmer) using excitation and emission wavelengths of 485 nm and 535 nm, respectively, at different time courses as indicated in the figures. Results are presented as the value change from baseline by the formula (Ftexp−Ftbase)/Ftbase normalized with the control group, where Ftexp=fluorescence at any given time during the experiment in a give well and Ftbase=baseline fluorescence of the same well.

c-Cbl [9] = assay: c-Cbl protein level after RNAi (Western blot); assay type: cell-based, rat; conditions: expression of RNAi construct
Excerpt: (§3) Anti-phosphorylated Erk monoclonal, anti-Erk monoclonal, anti-TrkC polyclonal anti-Fyn polyclonal, anti-EGFR polyclonal, anti-c-Met polyclonal, anti-phospho-tyrosine monoclonal, and anti-PDGFRα polyclonal antibodies were obtained from Santa Cruz Biotechnology (Santa Cruz, Calif., United States). Anti-c-Cbl monoclonal antibody was obtained from BD PharMingen (San Diego, Calif., United States). Anti-phosphorylated Akt monoclonal and anti-Akt polyclonal antibodies were obtained from Cell Signaling Technology (Beverly, Mass., United States). Anti-phosphorylated PDGPRα polyclonal antibody was obtained from Biosource (Carlsbad, Calif., United States). The cell culture samples were collected and lysed in RAPI buffer, whereas dissected tissue samples were sonicated in RAPI buffer. […]
(§4) siRNA target sites were selected by scanning the cDNA sequence for AA dinucleotides via siRNA target finder (Ambion, Austin, Tex., United States). Those 19-nucleotide segments that start with G immediately downstream of AA were recorded and then analyzed by BLAST search to eliminate any sequences with significant similarity to other genes. […]

Fyn [10] = assay: Fyn protein level after RNAi (Western blot); assay type: cell-based, rat; conditions: expression of RNAi construct
Excerpt: as §3, §4

[11] = 30 nM MeHg, 1 μM Pb, 5 μM paraquat

CC/C(=C(\c1ccccc1)c1ccc(OCCN(C)C)cc1)c1ccccc1 [tamoxifen]
levels of PDGFRα (PDGFRα [1]): causes reductions
levels of PDGFRα (PDGFRα [1]; listed as TMX): parallel reduction over time
O-2A/OPC division (O-2A/OPCs [2]): Suppression
reduction in cell division (MDA-MB-231 cell): ~10%
levels of EGFR (EGFR; TMX exposure): decreased
levels of c-Met (c-Met; TMX exposure): decreased
levels of Trk (non-c-Cbl target) (TrkC; TMX treatment): no differences
levels of phosphorylated PDGFRα (PDGFRα [3]; TMX exposure 4, 12, 24 hours): parallel reduction over time
c-Cbl activation (c-Cbl [4]; 100 nM tamoxifen): activates

Cl.N [NH4Cl, ammonium chloride]
effect on Aβ(1-42) suppression of PDGF-mediated Erk1/2 phosphorylation (Erk1/2; co-exposure with Aβ(1-42)): not
effect on MeHg-associated suppression of Erk1/2 phosphorylation (Erk1/2; co-treatment with MeHg): blocked
effect on Aβ-induced reduction in PDGFRα levels (PDGFRα [1]; co-exposure with Aβ): blocked
effect on MeHg-induced reductions in levels of PDGFRα (PDGFRα [1]): blocked
levels of ubiquitylated PDGFRα in MeHg-treated cells (PDGFRα [5]): increased levels of ubiquityiated receptor
effect on MeHg-induced suppression of PDGFRα phosphorylation (PDGFRα [3]; co-exposure with MeHg): protected
effect on MeHg-induced c-Cbl phosphorylation (c-Cbl [4]; added 1 h before MeHg): lack of effect
effect on Aβ-induced increase in phosphorylated c-Cbl (c-Cbl [4]; co-exposure with Aβ): not blocked
effect on MeHg-induced Fyn activation (Fyn [6]; added 1 h before MeHg): lack of effect

C[n+]1ccc(-c2cc[n+](C)cc2)cc1 [paraquat]
PDGF-induced Erk1/2 phosphorylation after toxicant exposure (Erk1/2; 30 nM MeHg 24 h, 1 μM Pb, 5 μM paraquat): reduced levels of Erk1/2 phosphorylation
total levels of PDGFRα after toxicant exposure (PDGFRα [1]; MeHg 30 nM, 1 μM Pb, 5 μM paraquat): reduced
levels of EGFR after toxicant exposure (EGFR; MeHg, Pb or paraquat): also reduced
levels of c-Met after toxicant exposure (c-Met; MeHg, Pb or paraquat): also reduced
levels of TrkC after toxicant exposure (TrkC; MeHg, Pb or paraquat): neither Pb or paraquat caused a reduction
phosphorylation of PDGFRα after toxicant exposure (PDGFRα [3]; [11]): reduced
cell death at the concentrations used (O-2A/OPCs [7]): did not cause cell death
cells more oxidized (intracellular redox state) (O-2A/OPCs [8]): approximately 20%
c-Cbl phosphorylation after toxicant exposure (c-Cbl [4]; [11]): increased phosphorylation of c-Cbl
Fyn activation after toxicant exposure (Fyn [6]; [11]): activation of Fyn

B1: c-Cbl RNAi: c-Cbl siRNA construct, SEQ ID NO: 3 and 4 (nucleic acid)
chain 1: GTGCATCCCATCAGTTCTGTTCAAGAGACAGAACTGATGGGATGCACTTTTTT
chain 2: AATTAAAAAAGTGCATCCCATCAGTTCTGTCTCTTGAACAGAACTGATGGGATGCACGGCC
modifications: expressed or natural sequence
effect on MeHg-induced reductions in levels of PDGFRα (PDGFRα [1]): protected
effect on Pb- and paraquat-induced reductions in levels of PDGFRα (PDGFRα [1]; together with Pb (1 μM) or paraquat (5 μM)): prevented
levels of c-Cbl protein (c-Cbl [9]): caused a reduction

B2: Fyn-Scr-RNAi: scrambled negative control for Fyn RNAi, SEQ ID NO: 5 and 6 (nucleic acid)
chain 1: CCCGGGTTTCAATATATTTCTCAAGAGAAAATATATTGAAACCCGGGTTTTTT
chain 2: AATTAAAAAACCCGGGTTTCAATATATTTTCTCTTGAGAAATATATTGAAACCCGGGGGCC
effect on MeHg-induced reductions in levels of PDGFRα (PDGFRα [1]): not
levels of Fyn protein (Fyn [10]): had no effect
